Source: patent US10857102B2, “Therapeutic compositions comprising rilpivirine HCL and tenofovir disoproxil fumarate” (priority 2010, dated 2020)

Test: Rilpivirine dissolution rate (laboratory data, FIG. 9)
Type: physicochemical
Description: Formulation 3 and Formulation 4 differ in the weight of extragranular excipients and in the amount of croscarmellose sodium present. […] It may be postulated that the higher amounts of diluents in the rilpivirine layer of Formulation 3 that was bioequivalent to the rilpivirine single agent reference tablet could have served to lessen the extent of contact and interactions between rilpivirine and emtricitabine and/or tenofovir DF and achieve bioequivalence.
In addition, the higher amount of croscarmellose sodium, a superdisintegrant, leads to faster layer disintegration and separation of the rilpivirine layer from the emtricitabine/tenofovir DF layer minimizing any potential interactions between rilpivirine with emtricitabine and/or tenofovir DF. […] This is possibly due to the basifying nature of this excipient.

rilpivirine dissolution rate (higher concentrations of croscarmellose sodium in the rilpivirine layer, FIG. 9): decreased
intrinsic dissolution rate of rilpivirine (in the presence of emtricitabine and/or tenofovir DF): increased
Compound: Cc1cc(/C=C/C#N)cc(C)c1Nc1ccnc(Nc2ccc(C#N)cc2)n1.Cl [rilpivirine, Rilpivirine HCl]
